US10292949B2, “Pharmaceutical composition comprising rimeporide for treating diseases associated with insulin resistance and β-cell dysfunction” (Merck Patent GmbH, priority 2008, dated 2019)

What was measured:
Format in all cases: in vivo, rat
[1] = Pharmacological Study Report I: body weight of ZF (fa/fa) rats during 4 weeks of treatment; details: age 8-12 weeks, Compound A 150 mg/kg gavage twice daily, Compound B 40 mg/kg/day in chow
Procedure: (§1) Obese, insulin resistant ZF (fa/fa) rats, which are treated from the age of 8-12 weeks, were used as IR model. Rats were housed with a 12-h light/dark cycle and free access to food and water unless otherwise noted. Studies were approved by the Institutional Animal Care and Use Committee. There were a total of 18 animals in the study (8 week-old males, provided by Charles River). Animals were randomized into 3 groups (vehicle group, Compound A group, Compound B group, n=6 per group) based on random glucose level at the beginning of the study: • Group 1: ZF rats (fa/fa) (n=6), compound A (150 mg/kg via gavage) • Group 2: ZF rats (fa/fa) (n=6), compound B (40 mg/kg/day as admixture to the chow) • Group 3: ZF rats (fa/fa) (n=6), vehicle treatment (control chow, vehicle gavage)
(§2) Group 1 and 3 animals were treated with compound A or vehicle (water) for 4 weeks (from age 8-12 weeks) via oral gavage, twice daily. Chow containing compound B was fed to Group 2 ad lib. Group 1 and Group 3 were fed with chow without compound B ad lib.

[2] = system: Obese, insulin resistant ZF (fa/fa) rats; test: Pharmacological Study Report I: deuterated glucose disposal test (2H-GDT); details: 4 weeks, Compound A 150 mg/kg gavage twice daily
Procedure: as §1, §2
Rats underwent a 4 hour fast. […] At t=0, the blood glucose concentrations were determined with a glucometer, and a blood sample was obtained for determination of base line insulin and H2O^18 dilution. […]
One hundred micro liter aliquots of plasma samples inside the cape of an inverted vial were placed in a heating blocked filled with glass beads at 70° C. overnight and the water distillate inside the vial was collected. The deuterium and oxygen-18 isotope ratios of the blood of plasma samples were determined using a Thermo Finnigan High Temperature Conversion/Elemental Analyzer coupled with a Thermo Finnigan MAT 253 IRMS via a Conflo-III Interface. […] The deuterium isotope abundance is first calculated in δ 2H values relative to the international VSMOW standard, and then transformed to APE by using a calibration curve of standards with known enrichments. The ^2H2O enrichment was calculated for rats at 30 min after the glucose load. ^2H2O enrichment was converted to mmoles by multiplying enrichment by the TBW pool size and dividing by 20 (MW ^2H2O). […]

[3] = system: Obese, insulin resistant ZF (fa/fa) rats; test: Pharmacological Study Report I: random and fasting blood glucose and plasma insulin levels; details: Compound A 150 mg/kg gavage twice daily, Compound B 40 mg/kg/day in chow
Procedure: as §1, §2
Random morning blood was withdrawn from ad libitium fed rats by a small cut in the tip of the tail. Blood was collected in heparinized tubes. Blood glucose concentrations were measured as per study design using a One-Touch glucometer (Lifescan Inc, Milptias, Calif.). Blood samples were placed on ice and centrifuged, and plasma stored at −20° C. until insulin was assayed. Rat plasma insulin concentration was measured with rat-specific ELISA kit (Crystal Chem Inc, Downers Grove, Ill.).
Random morning blood glucose levels were measured weekly between 9-11 a.m.
At the end of the study, rats were fasted for 4 hours and glucose and insulin level were measured.

[4] = Pharmacological Study Report II: body weight and food intake; details: for Average food consumption, Week 1 / Average food consumption, Week 2 / Average food consumption, Week 3 / Average food consumption, Week 4: fa/fa rats, average +/- SD
Procedure: Thirty-six obese Zucker fa/fa and six lean Zucker fa/? male rats obtained from Charles River, were housed under normal vivarium conditions on a 12 hour light/dark cycle. The rats were kept two to a cage with food and water available ad lib, except during the weekly, 4 hour fasts. Water continued to be available during these fasts.
Compound A corresponds to Cariporide. Compound B corresponds to 2-Methyl-4,5-di-(methylsulfonyl)-benzoyl-guanidine hydrochloride hydrate. Compounds A and B were supplied in powder form by Merck Serono. Drugs were incorporated into a pelleted diet (LabDiet, 5001) by Research Diets, Inc (New Brunswick, N.J.) at concentrations of 0.44 g/kg or 0.88 g/kg of diet to yield approximate doses of 40 or 80 mg/kg. The concentration was calculated based on the assumption that a 300 g rat would eat about 30 g/d of chow. The same chow, but without drug, was fed to rats of both the lean and fa/fa control group animals.
One week prior to the start of the study, all rats were weighed. After a 4 hour fast, a blood sample was obtained for the determination of blood glucose, insulin, and glycosylated hemoglobin levels (HbA1c). Animals were then sorted on the basis of these parameters into the groups listed below. Rats were eight weeks of age at the onset of treatment.
• 1. ZF rats (fa/fa) (n=6) chow without drug • 2. ZF rats (fa/fa) (n=6) compound A (40 mg/kg/day) • 3. ZF rats (fa/fa) (n=6) compound A (80 mg/kg/day) • 4. ZF rats (fa/fa) (n=6) compound B (40 mg/kg/day) • 5. ZF rats (fa/fa) (n=6) compound B (80 mg/kg/day) • 6. lean Zucker rats (fa/?) (n=6) chow without drug Dosing Regime
Treatment appropriate chow was continuously available for 4 weeks except during scheduled 4 h fasts conducted once per week.
individual body weights were determined once per week. Average food intake per cage was also determined once per week and the individual rat consumption was calculated by dividing the cage average by 2 (rats housed 2/cage).

SMILES: CC(C)c1ccc(C(=O)NC(=N)N)cc1S(C)(=O)=O [Compound A, Cariporide]
- Body weight, difference among vehicle- and compound-treated groups [1]: no significant differences
- Insulin sensitivity (% 2H2O recovery per insulin AUC), post-treatment compared to pre-treatment [2]: no significant change
- Pancreatic compensation (% 2H2O recovery), before vs after treatment within group ([2]; Compound B 40 mg/kg/day in chow, 90 minute % D2O recovery): exhibited lower pancreatic compensation post-treatment
- Random morning blood glucose level vs vehicle group ([3]; 4 weeks): trended towards lower glucose level
- Fasting glucose levels, post vs pre treatment ([3]; 4 h fast, after 4 weeks): trended towards lower values post treatment
- Fasting insulin levels compared to pre-treatment levels ([3]; 4 h fast, after 4 weeks): significantly lower
- Average weekly food intake vs chow fed fa/fa controls ([4]; Zucker fa/fa rats, 4 weeks, 40 or 80 mg/kg in chow): did not differ significantly
- Average food consumption, Week 1 ([4]; 40 mg/kg in chow): 32.2 +/− 3.5 grams
- Average food consumption, Week 2 ([4]; 40 mg/kg in chow): 33.1 +/− 2.6 grams
- Average food consumption, Week 3 ([4]; 40 mg/kg in chow): 33.9 +/− 2.4 grams
- Average food consumption, Week 4 ([4]; 40 mg/kg in chow): 34.9 +/− 2.7 grams
- Average food consumption, Week 1 ([4]; 80 mg/kg in chow): 34.3 +/− 2.5 grams
- Average food consumption, Week 2 ([4]; 80 mg/kg in chow): 32.8 +/− 4.3 grams
- Average food consumption, Week 3 ([4]; 80 mg/kg in chow): 32.3 +/− 4.5 grams
- Average food consumption, Week 4 ([4]; 80 mg/kg in chow): 30.8 +/− 5.6 grams
